{
  "source": "patent US20150202313A1",
  "about": "“Macromolecular Prodrugs for Hard Tissue and Methods of Use Thereof” (New York Society for The Ruptured and Crippled Maintaining …, priority 2012, published 2015)",
  "key": {"[1]": {"assay": "Weight loss side effect during treatment", "details": "in vivo", "text": "Eighteen 10-week-old male Swiss Webster mice were osteotomized and randomly assigned into three groups (6 mice/group). […] The overall SIM doses given to the SIMA and SIM/SIM-mPEG were equivalent. All mice were euthanized 21 days post osteotomy."}, "[2]": {"tested_on": "open fracture mouse model (femoral shaft fracture)", "assay": "Therapeutic efficacy in open fracture mouse model, Safranin O histology of callus", "assay_type": "in vivo, Swiss Webster mice", "details": "21 days post fracture", "method": "(§1) Ten-week-old male Swiss Webster mice were purchased from Charles River Laboratories, and maintained under standard housing conditions. The animals were acclimated for at least 1 week before any experimental procedure. Under general anesthesia with isoflurane, the hips, thighs, and knees on the right side of the animal were prepared with Betadine (povidone-iodine) solution. A 1.0 cm right medial parapatellar incision was made on the right knee. The patella was dislocated laterally to expose the femoral condyles. A 25-guage needle was introduced into the canal and driven in a retrograde intramedullary fashion to the level of the greater trochanter. Distally, the needle was cut flush with the cortex (length was about 1.4 cm) so as not to interfere with motion of the knee. Controlled unilateral transverse femoral shaft fractures were created with a #15 blade. […] Postoperatively, mice were placed on clean paper towels in their cages (to avoid inhalation/aspiration of the bedding material) and monitored until the animals were fully awake. The mice were monitored for signs of pain with analgesia and antibiotics given according to established protocol. […]\nAfter micro-CT analysis, the fractured femurs were decalcified using 14% EDTA at room temperature for 30 days. […] The specimens were then paraffin embedded, sectioned (5 μm thickness), stained with Safranin 0 and histologically evaluated."}, "[3]": {"tested_on": "open fracture mouse model (femoral shaft fracture)", "assay": "Therapeutic efficacy in open fracture mouse model, micro-CT analysis of callus", "assay_type": "in vivo, Swiss Webster mice", "method": "as §1, with “knee.” for “knee. Controlled unilateral transverse femoral shaft fractures were created with a #15 blade.”\nFor the quantitative analysis, we specifically focused on the site of fracture callus formation. […] The following parameters were measured and calculated: callus volume (Cl.V), callus thickness (Cl.Th), callus separation (Cl.Sp) and the ratio of callus surface to volume (Cl.S/Cl.V). […]"}},
  "data": [
    {"smiles": "CCC(C)(C)C(=O)O[C@H]1C[C@@H](C)C=C2C=C[C@H](C)[C@H](CC[C@@H](O)C[C@@H](O)CC(=O)O)[C@H]21", "note": "[SIMA, simvastatin acid]", "values": [
      {"measurement": "side effect of weight loss", "setting": "[1]", "result": "weight loss observed"},
      {"measurement": "histological features of callus sections (Safranin O)", "setting": "[2]", "result": "intermediate stage between CON and SIM/SIM-mPEG groups"},
      {"measurement": "quantitative morphometric indices of callus (micro-CT), comparison with CON", "setting": "[3]; 21 days post osteotomy, SIMA equiv. SIM 6 mg/kg/day i.p., micelles equiv. SIM 42 mg/kg/wk i.v.", "result": "No statistical significance"},
      {"measurement": "mineralization of the fracture callus (micro-CT images)", "setting": "[3]; 21 days post-fracture", "result": "less mineralized callus formation at the fracture site"}
    ]}
  ]
}
